Experimental data as given in the supplement of paper PMC10307832.

Key:
Test in all cases: relative viability (nuclei count vs DMSO), 5 days (fraction); higher = more cells survive
[1] = compound: COc1ncc(-c2ccc3nccc(-c4ccnnc4)c3c2)cc1NS(=O)(=O)c1ccc(F)cc1F [Omipalisib] + CC1(C)CCC(c2ccc(Cl)cc2)=C(CN2CCN(c3ccc(C(=O)NS(=O)(=O)c4ccc(N[C@H](CCN5CCOCC5)CSc5ccccc5)c(S(=O)(=O)C(F)(F)F)c4)cc3)CC2)C1 [Navitoclax] (partner 0.5 µM)
In short: (§1)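 Lung cancer cell lines in 1536-well plates got either a single drug or a fixed anchor-drug dose together with five library-drug doses (not always all listed) in √10 steps, by pin tool, on the day after seeding. Nuclei were counted after 5 days, and relative viability is the treated-to-vehicle ratio of nuclei counts. Values are medians of duplicate plates.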

[2] = compound: COc1ncc(-c2ccc3nccc(-c4ccnnc4)c3c2)cc1NS(=O)(=O)c1ccc(F)cc1F [Omipalisib] + CCNC(=O)c1noc(-c2cc(C(C)C)c(O)cc2O)c1-c1ccc(CN2CCOCC2)cc1 [Luminespib] (partner 0.01 µM)
In short: as §1

[3] = compound: COc1ncc(-c2ccc3nccc(-c4ccnnc4)c3c2)cc1NS(=O)(=O)c1ccc(F)cc1F [Omipalisib] + Cc1nc(NC(=O)N2CCC[C@H]2C(N)=O)sc1-c1ccnc(C(C)(C)C(F)(F)F)c1 [Alpelisib] (partner 2 µM)
In short: as §1

Cell Line	relative viability ([1]; first compound 0.0003 µM)	relative viability ([1]; first compound 0.003 µM)	relative viability ([1]; first compound 0.03 µM)	relative viability ([2]; first compound 0.0003 µM)	relative viability ([2]; first compound 0.003 µM)	relative viability ([2]; first compound 0.03 µM)	relative viability ([3]; first compound 0.0003 µM)	relative viability ([3]; first compound 0.003 µM)	relative viability ([3]; first compound 0.03 µM)
PC-14	1.02	1.07	0.923	0.154	0.143	0.16	0.997	0.955	0.876
NCI-H647	0.873	0.86	0.542	0.233	0.16	0.13	1.09	0.98	0.33
LCLC-103H	–	–	–	0.999	0.714	0.427	0.96	0.889	0.643
NCI-H2228	0.972	0.581	0.204	0.131	0.0865	0.11	0.764	0.657	0.251
NCI-H2085	1.12	0.951	0.509	0.386	0.352	0.291	1.06	0.787	0.36
H3255	0.495	0.362	0.201	0.942	0.786	0.613	0.714	0.606	0.444
LK-2	0.595	0.285	0.343	0.153	0.2	0.174	0.962	0.608	0.521
NCI-H441	0.547	0.527	0.552	0.207	0.28	0.234	0.585	0.588	0.441
SW 900	–	–	–	0.189	0.171	0.166	–	–	–
PC-3 [JPC-3]	0.781	0.76	0.646	0.677	0.587	0.485	1	0.993	0.863
NCI-H2342	–	–	–	0.622	0.45	0.446	–	–	–
NCI-H1437	1.03	0.974	0.517	1.15	1.02	0.926	0.92	0.707	0.45
HCC-827	0.979	0.97	0.651	0.588	0.302	0.194	1.06	0.943	0.389
HCC-44	0.848	0.63	0.27	1.08	1.09	0.295	0.742	0.619	0.29
NCI-H2126	0.82	0.594	0.375	0.825	0.567	0.338	0.696	0.583	0.474
NCI-H596	0.849	0.519	0.174	0.98	0.657	0.285	0.491	0.363	0.395
NCI-H460	1.06	0.61	0.143	0.0375	0.0227	0.0165	0.362	0.241	0.0908
NCI-H1792	0.583	0.515	0.235	0.328	0.41	0.184	0.664	0.6	0.236
RERF-LC-KJ	0.79	0.7	0.627	1.15	1.13	0.688	0.865	0.583	0.627
COR-L23	1.15	0.778	0.432	0.616	0.608	0.277	0.879	0.801	0.431
UMC-11	0.31	0.277	0.265	0.913	0.775	0.742	0.965	0.829	0.822
SW 1573	0.921	0.745	0.475	0.208	0.198	0.157	0.642	0.511	0.43
NCI-H1395	1.35	0.991	0.665	0.622	0.662	0.418	1	0.906	0.7
BEN	0.0683	0.0526	0.0581	0.274	0.276	0.288	0.781	0.58	0.585

Cell Line	relative viability ([1]; first compound 0.0003 µM)	relative viability ([1]; first compound 0.003 µM)	relative viability ([1]; first compound 0.03 µM)	relative viability ([2]; first compound 0.0003 µM)	relative viability ([2]; first compound 0.003 µM)	relative viability ([2]; first compound 0.03 µM)	relative viability ([3]; first compound 0.0003 µM)	relative viability ([3]; first compound 0.003 µM)	relative viability ([3]; first compound 0.03 µM)
SK-MES-1	1.21	0.836	0.464	0.635	0.421	0.269	0.847	0.66	0.458
NCI-H1755	1.01	0.848	0.368	0.445	0.292	0.375	0.949	0.878	0.514
NCI-H1793	0.368	0.29	0.204	0.19	0.159	0.159	0.577	0.435	0.292
HCC-15	0.667	0.54	0.462	0.331	0.383	0.206	0.922	0.73	0.789
ChaGo-K-1	0.762	0.686	0.945	0.615	0.593	0.503	–	–	–
LXF-289	0.947	1	0.739	0.536	0.456	0.232	1.06	1.02	0.792
NCI-H661	–	–	–	0.938	1.01	0.833	0.804	0.612	0.478
NCI-H358	–	–	–	0.325	0.221	0.0986	0.963	0.594	0.524
HOP-62	1.1	1.19	0.81	0.961	1.05	0.883	0.911	0.926	0.666
NCI-H1993	0.722	0.703	0.618	0.806	0.465	0.485	0.652	0.649	0.672
A-427	0.957	0.732	0.872	0.857	0.678	0.863	1.1	0.993	1.03
201T	1.21	1.2	0.838	0.95	1.05	0.463	1.02	0.999	0.735
SK-LU-1	0.926	0.237	0.625	0.206	0.199	0.19	0.937	0.838	0.642
NCI-H1651	0.834	0.752	0.484	0.64	0.648	0.565	0.915	0.847	0.69
LC-2-ad	0.531	0.309	0.105	0.825	1.05	0.461	0.858	0.856	0.425
NCI-H1734	0.763	0.444	0.275	0.208	0.203	0.171	0.582	0.464	0.32
COR-L 105	0.701	0.714	0.434	0.703	0.796	0.591	0.944	0.837	0.601
EKVX	0.979	0.773	0.48	0.859	0.717	0.423	0.85	0.72	0.397
NCI-H838	1.1	0.997	0.501	0.332	0.269	0.203	0.935	0.802	0.357
LOU-NH91	0.635	0.585	0.346	0.345	0.386	0.337	0.681	0.677	0.53
NCI-H2347	0.764	0.671	0.278	0.304	0.267	0.339	1.05	1.05	0.69
NCI-H1915	0.813	0.768	0.789	0.677	0.766	0.579	0.994	1.07	1.03
NCI-H3122	1.02	0.991	0.402	0.074	0.0541	0.089	0.742	0.63	0.489
NCI-H2009	1.22	1.14	0.897	1.04	1.02	0.874	1.16	1.12	0.994

Cell Line	relative viability ([1]; first compound 0.0003 µM)	relative viability ([1]; first compound 0.003 µM)	relative viability ([1]; first compound 0.03 µM)	relative viability ([2]; first compound 0.0003 µM)	relative viability ([2]; first compound 0.003 µM)	relative viability ([2]; first compound 0.03 µM)	relative viability ([3]; first compound 0.0003 µM)	relative viability ([3]; first compound 0.003 µM)	relative viability ([3]; first compound 0.03 µM)
NCI-H1650	1.18	1.05	0.409	0.179	0.182	0.169	–	–	–
NCI-H2023	0.959	0.633	0.313	0.619	0.44	0.155	0.513	0.523	0.344
NCI-H2087	0.918	0.749	0.535	0.166	0.14	0.158	1.19	0.886	0.751
NCI-H322M	1.21	0.823	0.515	0.518	0.517	0.298	1.07	0.77	0.452
EPLC-272H	1.12	0.945	0.327	0.191	0.176	0.156	0.883	0.794	0.477
HARA	1.1	1.19	0.733	0.605	0.621	0.0924	0.769	0.704	0.434
EMC-BAC-2	1.12	0.92	0.566	1.07	0.711	0.58	0.759	0.663	0.505
LCLC-97TM1	0.503	0.149	0.164	0.692	0.511	0.202	0.238	0.227	0.145
NCI-H1944	0.975	0.775	0.474	0.686	0.417	0.296	0.884	0.638	0.441
NCI-H2405	0.812	0.618	0.323	0.661	0.392	0.298	0.79	0.633	0.359
NCI-H1975	1.03	0.635	0.24	0.142	0.194	0.2	0.695	0.518	0.253
HCC-78	0.68	0.466	0.193	–	–	–	0.297	0.296	0.193
CAL-12T	1.1	1.17	0.466	0.319	0.194	0.107	0.989	0.95	0.774
NCI-H23	0.748	0.421	0.35	0.225	0.219	0.218	0.596	0.444	0.381
NCI-H2170	0.414	0.28	0.222	0.543	0.178	0.189	0.704	0.643	0.484
NCI-H1666	0.808	0.597	0.398	0.983	0.955	0.729	0.968	0.718	0.509
NCI-H650	–	–	–	0.81	0.592	0.378	1.03	0.741	0.487
NCI-H520	0.972	0.714	0.292	0.208	0.232	0.212	0.802	0.608	0.292
HCC-366	1.03	0.341	0.12	–	–	–	0.352	0.182	0.103
ABC-1	–	–	–	0.688	0.362	0.484	0.734	0.879	0.677
NCI-H727	0.458	0.229	0.152	0.35	0.281	0.395	0.594	0.445	0.5
NCI-H1355	0.931	0.538	0.343	0.637	0.579	0.273	0.716	0.55	0.336
LU99A	0.5	0.512	0.293	0.201	0.206	0.24	0.492	0.439	0.277
